# Measurements published in article PMC11873635 (Acta Pharmaceutica Sinica. B, 2024).
# How the values were obtained:
# human SMS1 = target: T1, human SMS1 (Homo sapiens, UniProt Q86VZ5); test: purified SMS enzyme inhibitory assay in vitro; assay type: biochemical; details: for inhibition at 100 µM: read-out: SMS1 Inhibition @ 100 μmol/L (%)
# T1 sequence (Q86VZ5 1-413): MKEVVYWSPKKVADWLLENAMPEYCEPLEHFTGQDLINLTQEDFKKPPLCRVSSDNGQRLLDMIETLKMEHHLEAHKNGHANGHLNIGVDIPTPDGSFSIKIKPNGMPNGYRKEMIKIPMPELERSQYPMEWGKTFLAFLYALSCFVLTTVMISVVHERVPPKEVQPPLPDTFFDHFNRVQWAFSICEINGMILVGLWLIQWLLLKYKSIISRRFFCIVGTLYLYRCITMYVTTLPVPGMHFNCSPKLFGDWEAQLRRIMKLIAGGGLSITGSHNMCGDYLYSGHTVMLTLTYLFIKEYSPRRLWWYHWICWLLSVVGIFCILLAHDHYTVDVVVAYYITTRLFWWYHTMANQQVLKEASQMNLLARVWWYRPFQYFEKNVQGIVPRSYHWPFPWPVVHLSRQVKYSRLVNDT
# human SMS2 = target: T2, human SMS2 (Homo sapiens, UniProt Q8NHU3); test: purified SMS enzyme inhibitory assay in vitro; assay type: biochemical; details: for inhibition at 1 µM: read-out: SMS2 Inhibition @ 1 μmol/L (%); for Selectivity ratio: IC50, SMS1/IC50, SMS2; for LLE: pIC50, SMS2 – ClogP
# T2 sequence (Q8NHU3 1-365): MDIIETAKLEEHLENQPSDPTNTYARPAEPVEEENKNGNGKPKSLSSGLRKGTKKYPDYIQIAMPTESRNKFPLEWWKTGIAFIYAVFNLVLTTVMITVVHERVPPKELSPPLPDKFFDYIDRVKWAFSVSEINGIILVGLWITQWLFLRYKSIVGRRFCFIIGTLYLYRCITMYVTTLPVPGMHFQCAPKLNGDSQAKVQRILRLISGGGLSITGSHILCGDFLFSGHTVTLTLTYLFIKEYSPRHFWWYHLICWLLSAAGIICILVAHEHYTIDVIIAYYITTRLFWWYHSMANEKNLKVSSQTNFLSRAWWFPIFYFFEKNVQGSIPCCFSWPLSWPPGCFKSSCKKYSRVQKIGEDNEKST
inhibition at 100 µM (human SMS1),inhibition at 1 µM (human SMS2),IC50 (human SMS1),IC50 (human SMS2),Selectivity ratio (human SMS2),LLE (human SMS2),Structure (SMILES)
74%,78%,49 µM,0.103 µM,477,3.18,CCCOc1ccccc1COc1ccsc1C(=O)Nc1cccnc1 [14g]
90%,95%,13 µM,0.029 µM,445,0.98,CCCCCCCCCCCOc1ccccc1COc1ccsc1C(=O)Nc1cccnc1 [14o]
33%,82%,160 µM,0.07 µM,2295,4.04,COc1ccccc1COc1ccsc1C(=O)Nc1cccnc1 [14e]
52%,26%,–,38.8 µM,–,0.75,O=C(Nc1cccnc1)c1sccc1OCc1ccc(Cl)cc1 [14c]
93%,88%,6 µM,0.067 µM,85,2.52,CCCCCCOc1ccccc1COc1ccsc1C(=O)Nc1cccnc1 [14j]
90%,91%,13 µM,0.029 µM,459,2.37,CCCCCCCOc1ccccc1COc1ccsc1C(=O)Nc1cccnc1 [14k]
56%,83%,78 µM,0.078 µM,1004,3.67,CCOc1ccccc1COc1ccsc1C(=O)Nc1cccnc1 [14f]
53%,79%,102 µM,–,–,–,O=C(Nc1cccnc1)c1sccc1OCc1cc(F)ccc1Cl [14d]
81%,93%,18 µM,0.034 µM,540,0.64,CCCCCCCCCCCCOc1ccccc1COc1ccsc1C(=O)Nc1cccnc1 [14p]
87%,92%,13 µM,0.031 µM,409,1.39,CCCCCCCCCCOc1ccccc1COc1ccsc1C(=O)Nc1cccnc1 [14n]
85%,91%,8 µM,0.111 µM,70,1.01,CCCCCCCCOc1ccc(Cl)cc1COc1ccsc1C(=O)Nc1cccnc1 [14r]
88%,86%,10 µM,0.074 µM,142,2.62,CCCCCOc1ccccc1COc1ccsc1C(=O)Nc1cccnc1 [14i]
81%,85%,20 µM,0.065 µM,313,3.14,CCCCOc1ccccc1COc1ccsc1C(=O)Nc1cccnc1 [14h]
60%,68%,–,0.199 µM,–,3.02,O=C(Nc1cccnc1)c1sccc1OCc1cccc(Cl)c1 [14b]
86%,91%,13 µM,0.035 µM,360,1.58,CCCCCCCCCOc1ccccc1COc1ccsc1C(=O)Nc1cccnc1 [14m]
92%,98%,10 µM,0.015 µM,649,1.83,CCCCCCCCOc1c(Cl)cccc1COc1ccsc1C(=O)Nc1cccnc1 [14q]
56%,64%,–,0.307 µM,–,2.90,O=C(Nc1cccnc1)c1sccc1OCc1ccccc1Cl [14a]

# Second part, the compound before the results:
Structure (SMILES),inhibition at 100 µM (human SMS1),inhibition at 1 µM (human SMS2),IC50 (human SMS1),IC50 (human SMS2),Selectivity ratio (human SMS2),LLE (human SMS2)
O=C(Nc1ccnnc1)c1sccc1OCc1ccccc1 [7j],5%,-16%,–,–,–,–
O=C(Nc1cccnc1)c1ncccc1OCc1ccccc1 [5b],-18%,–,–,–,–,–
Cc1cc(OCc2ccccc2)c(C(=O)Nc2cccnc2)s1 [5c],-14%,34%,–,–,–,–
O=C(Nc1cccnc1)c1sccc1OCc1ccccc1 [5a],20%,66%,219 µM,0.4 µM,547,3.33
O=C(Nc1cccnc1)c1sccc1OCc1cccc2cccnc12 [9d],21%,45%,–,–,–,–
O=C(Nc1cccnc1)c1sccc1OS(=O)(=O)c1ccccc1 [compound 10],–,-3%,–,–,–,–
O=C(Nc1cnccc1Cl)c1sccc1OCc1ccccc1 [7b],-39%,7%,–,–,–,–
O=C(Nc1cccnc1F)c1sccc1OCc1ccccc1 [7a],53%,41%,–,1.79 µM,–,2.31
O=C(Nc1cncc(F)c1)c1sccc1OCc1ccccc1 [7c],52%,56%,–,–,–,–
O=C(Nc1ccc(F)nc1)c1sccc1OCc1ccccc1 [7d],57%,12%,–,–,–,–
Cc1ccc(NC(=O)c2sccc2OCc2ccccc2)cn1 [7h],22%,-3%,–,–,–,–
O=C(Nc1cccnc1)c1sccc1OCc1cccc2ccccc12 [9a],39%,86%,–,–,–,–
Cc1nc(OCc2ccccc2)c(C(=O)Nc2cccnc2)s1 [5d],10%,–,–,–,–,–
Cc1ncccc1NC(=O)c1sccc1OCc1ccccc1 [7e],-20%,3%,–,–,–,–
O=C(Nc1ccccc1)c1sccc1OCc1ccccc1 [7k],–,3%,–,–,–,–
O=C(Nc1cccnn1)c1sccc1OCc1ccccc1 [7i],22%,25%,–,–,–,–
Cc1ccncc1NC(=O)c1sccc1OCc1ccccc1 [7f],-17%,-4%,–,–,–,–
CCCCCCCCOc1ccsc1C(=O)Nc1cccnc1 [9e],67%,-11%,–,–,–,–
O=C(Nc1cccnc1)c1sccc1OCc1ccc2ccccc2c1 [9b],42%,36%,–,–,–,–
O=C(Nc1cccnc1)c1sccc1OCc1c2ccccc2cc2ccccc12 [9c],5%,79%,–,–,–,–
Cc1cncc(NC(=O)c2sccc2OCc2ccccc2)c1 [7g],28%,12%,–,–,–,–
O=C(Nc1cccnc1)c1scc(Br)c1OCc1ccccc1 [5f],14%,42%,–,–,–,–
CN(C(=O)c1sccc1OCc1ccccc1)c1cccnc1 [compound 6],20%,28%,–,–,–,–
O=C(Nc1cccnc1)c1sc([N+](=O)[O-])cc1OCc1ccccc1 [5e],-4%,–,–,–,–,–
